In patent US11767330B2, “Citrate salt, pharmaceutical compositions, and methods of making and using the same” (Foghorn Therapeutics Inc., priority 2021, dated 2023):

What was measured:
Format in all cases: physicochemical
[1] = Forced degradation study of compound S-D1 (chiral HPLC)
Method: Sample solution stock was prepared by weighing 501.53 mg of compound S-D1 to a 100 mL volumetric flask, dissolving by ultrasonic in 50 mL of diluent 2, diluting to volume with diluent 2, and mixing well.
Unstressed sample solution was prepared by weighing 50.83 mg of compound S-D1 into a 100 mL volumetric flask, dissolving by ultrasonic in 50 mL of diluent 2, diluting to volume with diluent 2, and mixing well.
Sample solution for pH=4.0 solution stability was prepared as follows. 50.79 mg of compound S-D1 were weighed into a 100 mL volumetric flask, dissolved by ultrasonic in 50 mL of pH=4.0 50 mM sodium citrate buffer (see above), diluted to volume with pH=4.0 50 mM sodium citrate buffer, and mixed well.
Sample solution for pH=5.0 solution stability was prepared as follows. 50.66 mg of the compound of Formula I were weighed into a 100 mL volumetric flask, dissolved by ultrasonic in 50 mL of pH=5.0 50 mM sodium citrate buffer (see above), diluted to volume with 50 mL of pH=5.0 50 mM sodium citrate buffer and mixed well.
Sample solution for pH=7.0 solution stability was prepared as follows. 50.78 mg of compound S-D1 and 680.42 mg KH2PO4 were weighed into a 100 mL volumetric flask, dissolved by ultrasonic in 50 mL of diluent 1, transferred 29.1 mL of the 0.1N NaOH (see above), diluted to volume with diluent 1, and mixed well.
(§1) Acid degradation (1N HCl at RT). 3 mL of the sample stock solution (see above) into an 8 mL vial, added 3 mL of 2N HCl solution, and mixed well. Samples were prepared in quadruplicate and kept at room temperature (RT). At the sampling time point, 1 mL of the sample was transferred into a 5 mL volumetric flask, neutralized with 0.5 mL of […], diluted to volume with diluent 2, and mixed well.
as §1, with “Basic” for “Acid”, “(0.15N NaOH” for “(1N HCl”, “0.3N NaOH” for “2N HCl”
Thermal stress degradation (50° C. for solid). Approximately 150 mg of compound S-D1 were weighed into an 8 mL vial. Multiple samples were prepared and placed in an oven at 50° C. At the sampling time points, each of the 50.57 mg, 50.84 mg, and 50.84 mg samples were transferred into their respective 100 mL volumetric flasks, dissolved by ultrasonic in 50 mL of diluent 2, diluted to volume with diluent 2, and mixed well.
Solution Stability. The study was performed according to the conditions outlined in Table 15 using sample solution for pH=4.0 solution stability, sample solution for pH=5.0 solution stability, and sample solution for pH=7.0 solution stability (see above).

[2] = Physical stability by XRPD upon drying at 50° C. under vacuum and exposure to >95% RH
Method: (§2) X-Ray Powder Diffraction (XRPD). XRPD was performed using a Rigaku MiniFlex 600 in reflection mode (i.e., Bragg-Brentano geometry). Samples were prepared on Si zero-return wafers.
XRPD analysis was done in three stages. XRPD of the wet cake was done for all samples where solids were observed.
(§3) The solids were then exposed to >95% RH overnight. This humid environment was produced by placing a beaker of saturated potassium sulfate in water in a sealed container at RT. The materials exposed to these conditions were evaluated by XRPD, and their patterns were compared to those produced before.
as §3, with “The pattern FF-B was dried at 50° C. under vacuum for 3 h after filtration for further XRPD analysis. The solids” for “The solids”, “to those of the crystalline freebase along each step.” for “to those produced before.”

[3] = Stability at 40° C./75% RH for 1 week
Method: The humid environment was generated with saturated sodium chloride in water in a sealed container. After one week, the sample appeared pale-yellow upon inspection.
(§4) The one-week stability at 75% RH was also tested. In this experiment, 12 mg of the dried crystalline freebase from MeOH were weighted in a 4 mL vial and placed in a 20 mL vial set at 40° C. and 75% RH for 1 week. The humid environment was generated with saturated sodium chloride in water in a sealed container.
as §4, with “the” for “the dried”, “was” for “were”

[4] = Solid form characterisation (TGA/DSC, KF, XRPD, HPLC chemical and chiral purity); conditions: initial, before stability test
Method: Differential Scanning Calorimetry (DSC). DSC was performed using a Mettler Toledo DSC^3+. The sample (1-5 mg) was weighed directly in a 40 μL hermetic aluminum pan with a pinhole and analyzed according to the parameters in Tables 41 and 42.
High Performance Liquid Chromatography (HPLC). HPLC was conducted using an Agilent 1220 Infinity LC or Agilent 1220 Infinity 2 LC equipped with diode array detector (DAD). Flow rate range of the instrument is 0.2-5.0 mL/min, operating pressure range is 0-600 bar, temperature range is 5° C. above ambient to 60° C., and wavelength range is 190-600 nm.
Karl Fischer (KF) Titration. KF titration for water determination was performed using a Mettler Toledo C20S Coulometric KF Titrator equipped with a current generator cell with a diaphragm, and a double-platinum-pin electrode. The range of detection of the instrument is 1 ppm to 5% water. Aquastar™
CombiCoulomat fritless reagent was used in both the anode and cathode compartments. Samples of approximately 0.03-0.10 g were dissolved in the anode compartment and titrated until the solution potential dropped below 100 mV. Hydranal 1 wt. % water standard was used for validation prior to sample analysis.
Simultaneous Thermogravimetric Analysis and Differential Scanning Calorimetry (TGA and DSC). TGA and DSC were performed on the same sample simultaneously using a Mettler Toledo TGA/DSC^3+. Protective and purge gas was nitrogen at a flowrate of 20-30 mL/min and 50-100 mL/min, respectively. The desired amount of sample (5-10 mg) was weighed directly in a hermetic aluminum pan with pinhole and analyzed according to the parameters below:
as §2
XRPD was performed using a Bruker D8 Advance equipped with LYNXEYE detector in reflection mode (i.e., Bragg-Brentano geometry). Samples were prepared on Si zero-return wafers.

[5] = Dynamic vapor sorption (DVS) hygroscopicity
Method: Dynamic Vapor Sorption (DVS). DVS was performed using a Q5000SA. The sample (5-15 mg) was loaded into a metallic quartz sample pan, suspended from a microbalance, and exposed to a humidified stream of nitrogen gas. Weight changes were relative to a matching empty reference pan opposite the sample, suspended from the microbalance. One of two methods was used:
Method 1: The sample was held for a minimum of 10 min at each level and only progressed to the next humidity level if there was <0.002% change in weight between measurements (interval: 5 s) or 60 min had elapsed.

[6] = Acid Hydrolysis, 1N HCl RT, 0 h
[7] = Acid Hydrolysis, 1N HCl RT, 1 d
[8] = Acid Hydrolysis, 1N HCl RT, 2 d
[9] = Acid Hydrolysis, 1N HCl RT, 3 d
[10] = Base Hydrolysis, 0.15 N NaOH RT, 0 h
[11] = Base Hydrolysis, 0.15 N NaOH RT, 1 h
[12] = Solution Stability, pH = 4.0, 50 mM Sodium citrate buffer at RT, 0 h
[13] = Solution Stability, pH = 4.0, 50 mM Sodium citrate buffer at RT, 1 d
[14] = Solution Stability, pH = 4.0, 50 mM Sodium citrate buffer at RT, 2 d
[15] = Solution Stability, pH = 4.0, 50 mM Sodium citrate buffer at RT, 3 d
[16] = Solution Stability, pH = 5.0 50 mM Sodium citrate buffer at RT, 0 h
[17] = Solution Stability, pH = 5.0 50 mM Sodium citrate buffer at RT, 1 d
[18] = Solution Stability, pH = 5.0 50 mM Sodium citrate buffer at RT, 2 d
[19] = Solution Stability, pH = 5.0 50 mM Sodium citrate buffer at RT, 3 d
[20] = Solution Stability, pH = 7.0 Phosphate buffer at RT, 0 h
[21] = Solution Stability, pH = 7.0 Phosphate buffer at RT, 1 d
[22] = Solution Stability, pH = 7.0 Phosphate buffer at RT, 2 d
[23] = Solution Stability, pH = 7.0 Phosphate buffer at RT, 3 d

With `COc1cc(-c2cn(C)c(=O)c3cnc(N4CCC4)cc23)cc(OC)c1CN1CCC(CN2CCC3(CC2)CN(c2ccc4c(c2)C(=O)N([C@H]2CCC(=O)NC2=O)C4)C3)CC1` [S-D1] the “% Degradation” value [1, 6] was 0.002%, the “Area % (R-D1)” value [1, 6] was 0.825% and the “Area % (S-D1)” value [1, 6] was 99.176%. The “% Degradation” value [1, 7] was 0.005%, the “Area % (R-D1)” value [1, 7] was 0.828% and the “Area % (S-D1)” value [1, 7] was 99.172%. The “% Degradation” value [1, 8] was 0.011%, the “Area % (R-D1)” value [1, 8] was 0.834% and the “Area % (S-D1)” value [1, 8] was 99.166%. The “% Degradation” value [1, 9] was 0.016%, the “Area % (R-D1)” value [1, 9] was 0.839% and the “Area % (S-D1)” value [1, 9] was 99.161%. For the same compound, the “% Degradation” value [1, 10] was 18.260%, the “Area % (R-D1)” value [1, 10] was 19.083% and the “Area % (S-D1)” value [1, 10] was 80.917%. For the same compound, the “% Degradation” value [1, 11] was 52.210%, the “Area % (R-D1)” value [1, 11] was 53.033% and the “Area % (S-D1)” value [1, 11] was 46.967%. For the same compound, the “% Degradation” value [1, 12] was 0.098%, the “Area % (R-D1)” value [1, 12] was 0.921% and the “Area % (S-D1)” value [1, 12] was 99.079%. For the same compound, the “% Degradation” value [1, 13] was 0.139%, the “Area % (R-D1)” value [1, 13] was 0.962% and the “Area % (S-D1)” value [1, 13] was 99.038%. The “% Degradation” value [1, 14] was 0.301%, the “Area % (R-D1)” value [1, 14] was 1.124% and the “Area % (S-D1)” value [1, 14] was 98.876%. For the same compound, the “% Degradation” value [1, 15] was 0.482%, the “Area % (R-D1)” value [1, 15] was 1.305% and the “Area % (S-D1)” value [1, 15] was 98.695%. The “% Degradation” value [1, 16] was 0.648%, the “Area % (R-D1)” value [1, 16] was 1.471% and the “Area % (S-D1)” value [1, 16] was 98.529%. The “% Degradation” value [1, 17] was 1.038%, the “Area % (R-D1)” value [1, 17] was 1.861% and the “Area % (S-D1)” value [1, 17] was 98.139%. For the same compound, the “% Degradation” value [1, 18] was 1.407%, the “Area % (R-D1)” value [1, 18] was 2.230% and the “Area % (S-D1)” value [1, 18] was 97.770%. For the same compound, the “% Degradation” value [1, 19] was 2.002%, the “Area % (R-D1)” value [1, 19] was 2.825% and the “Area % (S-D1)” value [1, 19] was 97.175%. For the same compound, the “% Degradation” value [1, 20] was 10.732%, the “Area % (R-D1)” value [1, 20] was 11.555% and the “Area % (S-D1)” value [1, 20] was 88.445%. The “% Degradation” value [1, 21] was 18.922%, the “Area % (R-D1)” value [1, 21] was 19.745% and the “Area % (S-D1)” value [1, 21] was 80.255%. The “% Degradation” value [1, 22] was 27.551%, the “Area % (R-D1)” value [1, 22] was 28.374% and the “Area % (S-D1)” value [1, 22] was 71.626%. The “% Degradation” value [1, 23] was 35.103%, the “Area % (R-D1)” value [1, 23] was 35.926% and the “Area % (S-D1)” value [1, 23] was 64.074%. For the same compound, the “% Degradation” value ([1]; Thermal, 50° C. (solid), 1 d) was 0.178%, the “Area % (R-D1)” value ([1]; Thermal, 50° C. (solid), 1 d) was 1.001% and the “Area % (S-D1)” value ([1]; Thermal, 50° C. (solid), 1 d) was 98.999%. The “% Degradation” value ([1]; Thermal, 50° C. (solid), 3 d) was 0.331%, the “Area % (R-D1)” value ([1]; Thermal, 50° C. (solid), 3 d) was 1.154% and the “Area % (S-D1)” value ([1]; Thermal, 50° C. (solid), 3 d) was 98.847%. The “% Degradation” value ([1]; Thermal, 50° C. (solid), 7 d) was 0.380%, the “Area % (R-D1)” value ([1]; Thermal, 50° C. (solid), 7 d) was 1.203% and the “Area % (S-D1)” value ([1]; Thermal, 50° C. (solid), 7 d) was 98.797%. The “Area % (R-D1)” value ([1]; Unstressed) was 0.823% and the “Area % (S-D1)” value ([1]; Unstressed) was 99.177%.
In the case of `COc1cc(-c2cn(C)c(=O)c3cnc(N4CCC4)cc23)cc(OC)c1CN1CCC(CN2CCC3(CC2)CN(c2ccc4c(c2)C(=O)N([C@@H]2CCC(=O)NC2=O)C4)C3)CC1.O=C(O)CC(O)(CC(=O)O)C(=O)O` [citrate-A], the “physical stability (XRPD) upon drying at 50° C. under vacuum and exposure to >95% RH” value [2] was “became amorphous after drying and exposure to RH”.
With `COc1cc(-c2cn(C)c(=O)c3cnc(N4CCC4)cc23)cc(OC)c1CN1CCC(CN2CCC3(CC2)CN(c2ccc4c(c2)C(=O)N([C@@H]2CCC(=O)NC2=O)C4)C3)CC1.O=C(O)CC(O)(CC(=O)O)C(=O)O` [Citrate of Compound R-D1] the “Purity by HPLC (%) After 1 week 75% RH chemical” value ([3]; 40° C./75% RH) was 99.12%, the “XRPD pattern Dry” value ([2]; after drying, Am = amorphous) was “Am” and the “XRPD pattern Humid” value ([2]; after exposure to humidity, Am = amorphous) was “Am”. For the same compound, the “XRPD pattern Wet” value ([2]; solid form of compound R-D1, Am = amorphous) was “Am”, the “Purity by HPLC (%) [chiral]” value [4] was “[99.05] %” and the “Purity by HPLC (%) chemical” value [4] was 99.46%. For the same compound, the “HPLC chemical purity after DVS analysis” value [5] was 99.55%, the “XRPD after DVS analysis” value [5] was “did not show conversion to a crystalline pattern after performing the DVS analysis” and the “hygroscopicity according to the European Pharmacopeia standards (DVS)” value [5] was “very hygroscopic”. For the same compound, the “Hygroscopicity by DVS (up to 95% RH)” value ([5]; mass change up to 95% RH) was >25.55 wt. %.
In the case of `COc1cc(-c2cn(C)c(=O)c3cnc(N4CCC4)cc23)cc(OC)c1CN1CCC(CN2CCC3(CC2)CN(c2ccc4c(c2)C(=O)N([C@@H]2CCC(=O)NC2=O)C4)C3)CC1` [crystal pattern FF-A], the XRPD after storage ([3]; 40° C. and 75% RH) was “converted to compound R-D1, crystal pattern FF-B”.
